In ChEMBL document CHEMBL5321270, “Discovery of Pyrazolone Carbothioamide Derivatives as Inhibitors of the Pdr1-KIX Interaction for Combinational Treatment of Azole-Resistant Candidiasis” (J Med Chem, 2023):
In brackets after ≈: the same amount, converted by molar mass. Activity calls are given as the source filed them. No cut-off for these calls is given here.

Columns and labels:
[1] = AUC (0-t) in ICR mouse at 10 mg/kg,po measured upto 24 hrs by LC-MS/MS analysis; type: ADME, organism-based; set-up: time < 24 hrs, dose 10 mg/kg, route po; settings: in vivo
[2] = system: Nakaseomyces glabratus; experiment: Antifungal activity against fluconazole-resistant Candida glabrata 8535 assessed as fungal growth inhibition incubated for 48 hrs by microplate reader assay; type: functional
[3] = system: Nakaseomyces glabratus; experiment: Synergistic antifungal activity against fluconazole-resistant Candida glabrata 0161 assessed as inhibition of fungal growth at 2 to 16 ug/ml incubated for 48 hrs in presence of fluconazole by Spot plating assay; type: functional, organism-based; settings: dose 2-16 µg/ml
[4] = system: Nakaseomyces glabratus; experiment: Antifungal activity against FLC-resistant Candida glabrata 0161 infected in cyclophosphamide immunosuppressed ICR mouse model assessed as inhibition of fungal growth in kidney at 40 mg/kg,ip administrated for 5 days; type: functional, organism-based; settings: time 5.0 day
[5] = system: Aspergillus fumigatus; experiment: Antifungal activity against Aspergillus fumigatus 7544 assessed as fungal growth inhibition incubated for 48 hrs by microplate reader assay; type: functional
[6] = Volume of distribution at steady state in ICR mouse at 2 mg/kg,iv measured upto 24 hrs by LC-MS/MS analysis; type: ADME, organism-based; settings: in vivo, read-out: Vdss
[7] = Half life in ICR mouse at 10 mg/kg,po measured upto 24 hrs by LC-MS/MS analysis; type: ADME, organism-based; settings: in vivo
[8] = system: Nakaseomyces glabratus; experiment: Antifungal activity against fluconazole-resistant Candida glabrata 0161 assessed as inhibition of fungal growth at 2 to 16 ug/ml incubated for 48 hrs by Spot plating assay; type: functional, organism-based; settings: dose 2-16 µg/ml
[9] = system: Trichophyton rubrum; experiment: Antifungal activity against Trichophyton rubrum assessed as fungal growth inhibition incubated for 48 hrs by microplate reader assay; type: functional
[10] = system: Nakaseomyces glabratus; experiment: Synergistic antifungal activity against fluconazole-resistant Candida glabrata 0161 assessed as inhibition of fungal mature biofilm formation at 1 to 64 ug/ml incubated for 24 hrs in presence of fluconazole by XXT reduction menadione assay; type: functional, organism-based; settings: dose 1-64 µg/ml
[11] = Clearance in ICR mouse at 2 mg/kg,iv measured upto 24 hrs by LC-MS/MS analysis; type: ADME, organism-based; settings: in vivo
[12] = system: Nakaseomyces glabratus; experiment: Synergistic antifungal activity against FLC-resistant Candida glabrata 0161 infected in cyclophosphamide immunosuppressed ICR mouse model assessed as reduction in kidney fungal infection at 5 mg/kg,ip administrated for 5 days in presence of fluconazole by Hematoxylin and eosin staining based analysis; type: functional, organism-based; settings: time 5.0 day
[13] = system: Nakaseomyces glabratus; experiment: Synergistic antifungal activity against fluconazole-resistant Candida glabrata 0161 assessed as downregulation of PDR1 gene expression at 4 ug/ml in presence of fluconazole by RT-PCR analysis; type: functional, organism-based; settings: dose 4.0 µg/ml
[14] = Cmax in ICR mouse at 2 mg/kg,iv measured upto 24 hrs by LC-MS/MS analysis; type: ADME, organism-based; set-up: dose 2 mg/kg, time < 24 hrs, route iv; settings: in vivo
[15] = system: Nakaseomyces glabratus; experiment: Antifungal activity against fluconazole-resistant Candida glabrata 0161 assessed as inhibition of fungal mature biofilm formation at 0.25 to 64 ug/ml incubated for 24 hrs by XXT reduction menadione assay; type: functional, organism-based; settings: dose 0.25-64 µg/ml
[16] = Inhibition of fluorescent probe FITC tagged PDR1-KIX domain (unknown origin) protein-protein interaction assessed as inhibition constant incubated for 2 hrs by fluorescence polarization binding assay
[17] = system: Nakaseomyces glabratus; experiment: Antifungal activity against fluconazole-resistant Candida glabrata 9256 assessed as fungal growth inhibition incubated for 48 hrs by microplate reader assay; type: functional
[18] = AUC (0-infinity) in ICR mouse at 10 mg/kg,po measured upto 24 hrs by LC-MS/MS analysis; type: ADME, organism-based; set-up: time < 24 hrs, dose 10 mg/kg, route po; settings: in vivo
[19] = system: Nakaseomyces glabratus; experiment: Synergistic antifungal activity against fluconazole-resistant Candida glabrata 0161 assessed as downregulation of ERG11 gene expression at 4 ug/ml in presence of fluconazole by RT-PCR analysis; type: functional, organism-based; settings: dose 4.0 µg/ml
[20] = system: [Candida] auris; experiment: Antifungal activity against Candida auris 15448 assessed as fungal growth inhibition incubated for 48 hrs by microplate reader assay; type: functional; settings: Candidozyma auris
[21] = Cytotoxicity against human HUVEC cells incubated for 48 hrs by CCK-8 assay; type: toxicity, cell-based
[22] = AUC (0-infinity) in ICR mouse at 2 mg/kg,iv measured upto 24 hrs by LC-MS/MS analysis; type: ADME, organism-based; set-up: dose 2 mg/kg, time < 24 hrs, route iv; settings: in vivo
[23] = AUC (0-t) in ICR mouse at 2 mg/kg,iv measured upto 24 hrs by LC-MS/MS analysis; type: ADME, organism-based; set-up: time < 24 hrs, dose 2 mg/kg, route iv; settings: in vivo
[24] = system: Nakaseomyces glabratus; experiment: Synergistic antifungal activity against fluconazole-resistant Candida glabrata 0161 assessed as downregulation of CDR2 gene expression at 4 ug/ml in presence of fluconazole by RT-PCR analysis; type: functional, organism-based; settings: dose 4.0 µg/ml
[25] = system: Nakaseomyces glabratus; experiment: Synergistic antifungal activity against fluconazole-resistant Candida glabrata 0161 assessed as downregulation of CDR1 gene expression at 4 ug/ml in presence of fluconazole by RT-PCR analysis; type: functional, organism-based; settings: dose 4.0 µg/ml
[26] = system: Nakaseomyces glabratus; experiment: Antifungal activity against FLC-resistant Candida glabrata 0161 infected in cyclophosphamide immunosuppressed ICR mouse model assessed as pathological change in kidney at 5 mg/kg,ip administrated for 5 days by Hematoxylin and eosin staining based analysis; type: functional, organism-based; settings: time 5.0 day
[27] = system: Nakaseomyces glabratus; experiment: Synergistic antifungal activity against FLC-resistant Candida glabrata 0161 infected in cyclophosphamide immunosuppressed ICR mouse model assessed as inhibition of fungal growth in kidney at 5 mg/kg,ip administrated in presence of fluconazole for 5 days; type: functional, organism-based; settings: time 5.0 day
[28] = system: Nakaseomyces glabratus; experiment: Antifungal activity against fluconazole-resistant Candida glabrata 0161 assessed as fungal growth inhibition at 4 ug/ml incubated for 48 hrs by time-growth curve assay; type: functional, organism-based; settings: dose 4.0 µg/ml
[29] = system: Candida tropicalis; experiment: Antifungal activity against Candida tropicalis 10186 assessed as fungal growth inhibition incubated for 48 hrs by microplate reader assay; type: functional
[30] = system: Nakaseomyces glabratus; experiment: Synergistic antifungal activity against fluconazole-resistant Candida glabrata 0161 assessed as fungal growth inhibition incubated for 48 hrs in presence of fluconazole by time-growth curve assay; type: functional, organism-based
[31] = Tmax in ICR mouse at 2 mg/kg,iv measured upto 24 hrs by LC-MS/MS analysis; type: ADME, organism-based; settings: in vivo
[32] = system: Nannizzia gypsea; experiment: Antifungal activity against Microsporum gypseum assessed as fungal growth inhibition incubated for 48 hrs by microplate reader assay; type: functional
[33] = system: Candida albicans; experiment: Antifungal activity against Candida albicans assessed as fungal growth inhibition incubated for 48 hrs by microplate reader assay; type: functional
[34] = Half life in ICR mouse at 2 mg/kg,iv measured upto 24 hrs by LC-MS/MS analysis; type: ADME, organism-based; settings: in vivo
[35] = system: Nakaseomyces glabratus; experiment: Antifungal activity against fluconazole-resistant Candida glabrata 0161 assessed as increase in Nile red accumulation at 50 uM incubated for 30 mins by nile red staining based confocal microscopic analysis; type: functional, organism-based
[36] = system: Nakaseomyces glabratus; experiment: Antifungal activity against fluconazole-resistant Candida glabrata 0161 assessed as fractional inhibitory concentration incubated for 48 hrs in presence of fluconazole by microplate reader assay; type: functional
[37] = Tmax in ICR mouse at 10 mg/kg,po measured upto 24 hrs by LC-MS/MS analysis; type: ADME, organism-based; settings: in vivo
[38] = system: Candida parapsilosis; experiment: Antifungal activity against Candida parapsilosis 20090 assessed as fungal growth inhibition incubated for 48 hrs by microplate reader assay; type: functional; settings: Lodderomyces parapsilosis
[39] = system: Nakaseomyces glabratus; experiment: Antifungal activity against FLC-resistant Candida glabrata 0161 infected in cyclophosphamide immunosuppressed ICR mouse model assessed as inhibition of fungal growth in kidney at ip administration for 5 days; type: functional, organism-based; settings: time 5.0 day
[40] = Oral bioavailability in ICR mouse at 10 mg/kg measured upto 24 hrs by LC-MS/MS analysis; type: ADME, organism-based; settings: in vivo
[41] = Aqueous solubility of compound; type: physicochemical
[42] = Cmax in ICR mouse at 10 mg/kg,po measured upto 24 hrs by LC-MS/MS analysis; type: ADME, organism-based; set-up: dose 10 mg/kg, time < 24 hrs, route po; settings: in vivo

Nc1cc(=O)n(C(=S)Nc2ccc3c(c2)CCC3)[nH]1
AUC(0-t) at 24 h [1]: 389 ng·h/mL
MIC [2]: 0.25 µg/mL (≈ 0.911 µM)
Activity [3]: Active
Activity [4]: Active
MIC [5]: 16 µg/mL (≈ 58.3 µM)
Vd [6]: 1.04 L/kg
half-life [7]: 36 min
Activity [8]: Active
MIC [9]: 1 µg/mL (≈ 3.64 µM)
inhibition [10]: Active
clearance [11]: 68.6 mL/min/kg
Activity [12]: Active
Activity [13]: Active
Cmax [14]: 1520 ng/mL
inhibition [15]: inactive
Ki [16]: 11.7 µM
MIC [17]: 0.25 µg/mL (≈ 0.911 µM)
AUC(0-inf) [18]: 390 ng·h/mL
Activity [19]: Active
MIC [20]: 2 µg/mL (≈ 7.29 µM)
IC50 at 48 h [21]: > 83 µM
AUC(0-inf) [22]: 491 ng·h/mL
AUC(0-t) at 24 h [23]: 489 ng·h/mL
Activity [24]: Active
Activity [25]: Active
Activity [26]: Active
Activity [27]: Active
Activity [28]: Active
MIC [29]: 4 µg/mL (≈ 14.6 µM)
Activity [30]: Dose-Dependent Effect
Tmax [31]: 4.8 min
MIC [32]: 1 µg/mL (≈ 3.64 µM)
MIC [33]: 4 µg/mL (≈ 14.6 µM)
half-life [34]: 51.6 min
Activity [35]: Active
FIC [36]: 0.063 µg/mL
Tmax [37]: 15 min
MIC [38]: 4 µg/mL (≈ 14.6 µM)
Activity [39]: Dose-Dependent Effect
bioavailability [40]: 15.9%
solubility [41]: 22.1 µg/mL (≈ 80.4 µM)
Cmax [42]: 875 ng/mL
